± gives the standard deviation of the averaged measurements.
How the values were obtained:
LENVATINIB = compound: COc1cc2nccc(Oc3ccc(NC(=O)NC4CC4)c(Cl)c3)c2cc1C(N)=O [LENVATINIB]; experiment: surviving fraction relative to DMSO-only wells; higher = less growth inhibition; settings: exposure time: 5 days
How it was run: (§1)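 Lines were retained only if, across three screens, replicate Pearson r was >0.7 and median Z' was >0.3. Viability was measured as CellTiter-Glo luminescence and reported as surviving fraction relative to the median of DMSO-only wells. Readings followed 10 minutes at room temperature, after log-phase tumour cells seeded at 250–500 per well in 384-well plates had been exposed, from 24 hours after seeding, continuously for five days to inhibitors at 0.5, 1, 5, 10, 50, 100, 500 and 1000 nM.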

MK-1775 = compound: C=CCn1c(=O)c2cnc(Nc3ccc(N4CCN(C)CC4)cc3)nc2n1-c1cccc(C(C)(C)O)n1 [MK-1775]; experiment: as above; settings: exposure time: 5 days
How it was run: as §1

Test System | surviving fraction (LENVATINIB; 0.5 nM) | surviving fraction (LENVATINIB; 1 nM) | surviving fraction (LENVATINIB; 5 nM) | surviving fraction (LENVATINIB; 10 nM) | surviving fraction (LENVATINIB; 50 nM) | surviving fraction (LENVATINIB; 100 nM) | surviving fraction (LENVATINIB; 500 nM) | surviving fraction (LENVATINIB; 1000 nM) | surviving fraction (MK-1775; 0.5 nM) | surviving fraction (MK-1775; 1 nM) | surviving fraction (MK-1775; 5 nM) | surviving fraction (MK-1775; 10 nM) | surviving fraction (MK-1775; 50 nM) | surviving fraction (MK-1775; 100 nM) | surviving fraction (MK-1775; 500 nM) | surviving fraction (MK-1775; 1000 nM)
22RV1 PROSTATE | 1.06 ± 0.03 | 1.05 ± 0.056 | 1.05 ± 0.059 | 1.01 ± 0.075 | 1.05 ± 0.11 | 0.97 ± 0.031 | 1.08 ± 0.032 | 1.06 ± 0.12 | 1.01 ± 0.03 | 1.01 ± 0.066 | 0.972 ± 0.051 | 1 ± 0.021 | 1.03 ± 0.033 | 0.877 ± 0.083 | 0.608 ± 0.028 | 0.263 ± 0.039
93VU HEADNECK | 1.05 ± 0.044 | 1.11 ± 0.074 | 1.09 ± 0.12 | 1.167 ± 0.0038 | 1.18 ± 0.087 | 1.19 ± 0.086 | 0.99 ± 0.036 | 1.11 ± 0.024 | 1.05 ± 0.098 | 0.996 ± 0.034 | 1.13 ± 0.1 | 1.01 ± 0.033 | 0.649 ± 0.063 | 0.416 ± 0.038 | 0.22 ± 0.021 | 0.165 ± 0.029
143B BONE | 0.992 ± 0.0085 | 1.018 ± 0.0064 | 1.04 ± 0.022 | 1.01 ± 0.027 | 1.04 ± 0.012 | 1.05 ± 0.015 | 1.05 ± 0.022 | 1.05 ± 0.013 | 0.998 ± 0.0057 | 1.01 ± 0.033 | 1.02 ± 0.045 | 1.02 ± 0.0028 | 1.025 ± 0.0057 | 0.993 ± 0.013 | 0.111 ± 0.011 | 0.067 ± 0.0042
A549 LUNG | 1.04 ± 0.067 | 1.03 ± 0.053 | 1.04 ± 0.053 | 1.04 ± 0.061 | 1.06 ± 0.087 | 1.03 ± 0.044 | 1.13 ± 0.073 | 1.12 ± 0.025 | 1.02 ± 0.051 | 0.985 ± 0.059 | 0.995 ± 0.057 | 0.998 ± 0.032 | 1.05 ± 0.037 | 1.08 ± 0.047 | 0.816 ± 0.02 | 0.38 ± 0.011
ASKA SYNOVIAL | 1.12 ± 0.063 | 1.04 ± 0.045 | 1.13 ± 0.082 | 1.12 ± 0.1 | 1.19 ± 0.11 | 1.21 ± 0.024 | 1.09 ± 0.044 | 1.04 ± 0.041 | 0.946 ± 0.032 | 1.02 ± 0.1 | 1.1 ± 0.03 | 1.02 ± 0.023 | 0.405 ± 0.0092 | 0.406 ± 0.012 | 0.295 ± 0.019 | 0.37 ± 0.015
BT20 BREAST | 1.15 ± 0.07 | 1.2 ± 0.077 | 1.21 ± 0.093 | 1.01 ± 0.15 | 1.05 ± 0.088 | 1.05 ± 0.16 | 1.24 ± 0.16 | 1.08 ± 0.2 | 1.12 ± 0.23 | 1.05 ± 0.19 | 1.06 ± 0.17 | 1.04 ± 0.21 | 1.09 ± 0.3 | 0.972 ± 0.21 | 0.162 ± 0.02 | 0.0827 ± 0.021
BT549 BREAST | 1.1 ± 0.043 | 1.16 ± 0.27 | 1.24 ± 0.031 | 1.11 ± 0.26 | 1.04 ± 0.15 | 1.15 ± 0.056 | 1.11 ± 0.087 | 1.06 ± 0.11 | 1.15 ± 0.1 | 1.11 ± 0.13 | 1.09 ± 0.089 | 1.04 ± 0.089 | 0.783 ± 0.038 | 0.427 ± 0.011 | 0.0453 ± 0.0057 | 0.0453 ± 0.0032
C33A CERVIX | 0.874 ± 0.037 | 0.937 ± 0.094 | 1 ± 0.14 | 1 ± 0.11 | 1.06 ± 0.097 | 1.14 ± 0.056 | 1.02 ± 0.1 | 0.955 ± 0.088 | 0.908 ± 0.063 | 0.986 ± 0.15 | 1 ± 0.053 | 0.962 ± 0.11 | 0.895 ± 0.073 | 0.491 ± 0.025 | 0.043 ± 0.02 | 0.0347 ± 0.0064
CADOES1 SOFT TISSUE | 0.975 ± 0.14 | 0.885 ± 0.14 | 0.859 ± 0.14 | 0.885 ± 0.049 | 0.897 ± 0.1 | 0.836 ± 0.11 | 0.839 ± 0.075 | 0.842 ± 0.17 | 0.978 ± 0.014 | 0.929 ± 0.11 | 0.95 ± 0.036 | 0.887 ± 0.049 | 0.92 ± 0.094 | 0.832 ± 0.065 | 0.444 ± 0.034 | 0.218 ± 0.017
CAL51 BREAST | 0.974 ± 0.023 | 0.975 ± 0.011 | 0.983 ± 0.011 | 0.98 ± 0.031 | 0.973 ± 0.045 | 0.976 ± 0.022 | 0.853 ± 0.051 | 0.755 ± 0.0033 | 0.966 ± 0.047 | 0.9993 ± 0.0062 | 1.01 ± 0.016 | 0.994 ± 0.044 | 0.853 ± 0.012 | 0.48 ± 0.031 | 0.0318 ± 0.0013 | 0.0317 ± 0.0026
CAL72 BONE | 1.14 ± 0.086 | 1.12 ± 0.046 | 1.14 ± 0.088 | 1.12 ± 0.062 | 1.16 ± 0.069 | 1.18 ± 0.12 | 1.01 ± 0.13 | 0.613 ± 0.051 | 1.06 ± 0.019 | 1.08 ± 0.041 | 1.07 ± 0.047 | 1.05 ± 0.023 | 1.11 ± 0.041 | 0.959 ± 0.018 | 0.123 ± 0.0076 | 0.109 ± 0.0067
CAL120 BREAST | 0.968 ± 0.014 | 0.984 ± 0.028 | 1.01 ± 0.023 | 1.01 ± 0.024 | 0.9848 ± 0.0086 | 0.984 ± 0.028 | 0.866 ± 0.024 | 0.753 ± 0.049 | 0.9598 ± 0.0037 | 0.944 ± 0.011 | 0.985 ± 0.026 | 0.9663 ± 0.0029 | 0.902 ± 0.016 | 0.783 ± 0.027 | 0.2 ± 0.015 | 0.12 ± 0.018
CASKI CERVIX | 0.944 ± 0.077 | 0.98 ± 0.096 | 0.988 ± 0.014 | 1.01 ± 0.019 | 1.026 ± 0.0064 | 1.08 ± 0.063 | 0.985 ± 0.073 | 0.956 ± 0.073 | 0.887 ± 0.032 | 0.916 ± 0.071 | 0.99 ± 0.044 | 0.919 ± 0.049 | 0.479 ± 0.022 | 0.187 ± 0.012 | 0.0533 ± 0.0051 | 0.0453 ± 0.0068
CHLA90 AUTONOMIC GANGLIA | 0.984 ± 0.039 | 0.999 ± 0.043 | 0.954 ± 0.05 | 1 ± 0.077 | 0.972 ± 0.049 | 0.939 ± 0.051 | 1.05 ± 0.043 | 1.04 ± 0.034 | 1.03 ± 0.051 | 1.06 ± 0.073 | 0.981 ± 0.023 | 0.963 ± 0.024 | 0.791 ± 0.011 | 0.681 ± 0.036 | 0.0927 ± 0.0067 | 0.076 ± 0.013
CME SYNOVIAL | 1.28 ± 0.14 | 1.25 ± 0.12 | 1.18 ± 0.092 | 1.17 ± 0.3 | 1.22 ± 0.076 | 1.1 ± 0.038 | 0.847 ± 0.074 | 0.91 ± 0.029 | 1.36 ± 0.27 | 1.31 ± 0.096 | 1.5 ± 0.11 | 1.24 ± 0.13 | 1.45 ± 0.094 | 1.4 ± 0.11 | 1.3 ± 0.18 | 0.385 ± 0.025
COLO320DM LARGE INTESTINE | 1.16 ± 0.058 | 1.1 ± 0.077 | 1.05 ± 0.053 | 1.1 ± 0.18 | 1.17 ± 0.033 | 1.1 ± 0.072 | 1.14 ± 0.067 | 1.11 ± 0.068 | 1.09 ± 0.063 | 1.1 ± 0.12 | 1.08 ± 0.12 | 1.12 ± 0.033 | 0.834 ± 0.054 | 0.592 ± 0.16 | 0.139 ± 0.011 | 0.131 ± 0.014
DU4475 BREAST | 1.02 ± 0.26 | 1.12 ± 0.21 | 0.991 ± 0.23 | 0.994 ± 0.17 | 0.935 ± 0.22 | 1.06 ± 0.16 | 0.912 ± 0.2 | 0.994 ± 0.26 | 1.1 ± 0.26 | 1.15 ± 0.088 | 1.01 ± 0.068 | 0.889 ± 0.059 | 0.686 ± 0.28 | 0.554 ± 0.23 | 0.102 ± 0.034 | 0.037 ± 0.0056
H23 LUNG | 1.03 ± 0.054 | 1.05 ± 0.06 | 1.06 ± 0.079 | 1.05 ± 0.08 | 1.05 ± 0.049 | 1.12 ± 0.074 | 1.15 ± 0.068 | 1.17 ± 0.069 | 1.04 ± 0.018 | 1.02 ± 0.041 | 1.04 ± 0.06 | 1.03 ± 0.1 | 0.86 ± 0.054 | 0.632 ± 0.045 | 0.285 ± 0.023 | 0.209 ± 0.034
HCC78 LUNG | 1.08 ± 0.28 | 1.02 ± 0.24 | 0.93 ± 0.32 | 1.04 ± 0.22 | 1.08 ± 0.044 | 1.07 ± 0.22 | 1.02 ± 0.1 | 0.978 ± 0.14 | 0.883 ± 0.12 | 0.875 ± 0.14 | 1.07 ± 0.32 | 1.02 ± 0.13 | 0.827 ± 0.15 | 0.839 ± 0.08 | 0.105 ± 0.022 | 0.0803 ± 0.02
HCC202 BREAST | 1.04 ± 0.13 | 0.977 ± 0.21 | 1.1 ± 0.33 | 1.32 ± 0.17 | 0.801 ± 0.56 | 1.15 ± 0.18 | 0.783 ± 0.6 | 0.946 ± 0.25 | 1.137 ± 0.0059 | 1.13 ± 0.2 | 1.01 ± 0.21 | 0.991 ± 0.061 | 0.908 ± 0.17 | 0.712 ± 0.22 | 0.347 ± 0.08 | 0.361 ± 0.075
